Patent US6420563B1, “Small molecule modulators of G protein-coupled receptor six” (Arena Pharmaceuticals, Inc., priority 1998, dated 2002)
pIC50: −log10 of the molar value. Like-named read-outs stand apart in the source and are kept apart here.

Tests used:
GPR6 = target: T1, GPR6 (Homo sapiens, UniProt P46095); assay: membrane-based cyclic AMP confirmation assay (Example 4C); assay type: biochemical; settings: mean +/- standard deviation (number of assays in brackets); read-out: IC50 Values Cyclic AMP Assay Example 4C
T1 construct: expressed in transfected cells; 293 cells are used elsewhere
From the text: Using an independent assay approach to provide confirmation of a directly identified candidate compound as set forth above, it is preferred that a confirmation assay then be utilized. In this case, the preferred confirmation assay is membrane-based cyclic AMP (cAMP) assay.
A modified Flash Plate™ Adenylyl Cyclase kit (New England Nuclear; Cat. No. SMP004A) was utilized for confirmation of candidate compounds directly identified as inverse agonists and agonists to endogenous, constitutively activated orphan GPCRs in accordance with the following protocol.
Transfected stable cells were harvested approximately three days after transfection. Membranes were prepared by homogenization of suspended cells in buffer containing 20 mM HEPES, pH 7.4 and 10 mM MgCl2. Homogenization was performed on ice using a Brinkman Polytron™ for approximately 10 seconds. The resulting homogenate was centrifuged at 20,000 rpm for 20 minutes at 4° C. The resulting pellet was then resuspended in buffer containing 20 mM HEPES, pH 7.4 and 0.1 mM EDTA, homogenized for 10 seconds, followed by centrifugation at 20,000 rpm for 20 minutes at 4° C. The resulting pellet can be stored at −80° C. until utilized. On the day of direct identification screening, the membrane pellet is slowly thawed at room temperature, resuspended in buffer containing 20 mM HEPES, pH 7.4, 100 mM NaCl and 10 mM MgCL2, to yield a final protein concentration of 0.60 mg/ml (the resuspended membranes are placed on ice until use).
Candidate compounds identified as per above (if frozen, thawed at room temperature) were added to plate wells (3 μl/well; 12 μM final assay concentration), together with 50 μl Membrane Protein (30 μg/well) and 50 μl of Assay Buffer. This admixture was then incubated for 30 minutes at room temperature, with gentle shaking.
Following the incubation, 100 μl of Detection Buffer was added to each well, followed by incubation for 2-20 hours. Plates were subsequently aspirated and then counted in a Wallac MicroBeta™ plate reader using “Prot. #31” (as per manufacturer instructions).

[1] = Food/water intake and body weight in 24-hour food deprived rats, oral gavage (PO); assay type: in vivo, rat
Description: Based upon the in vivo data developed, oral bioavailability of compound ARE112 was determined. The compound was administered by oral gavage at doses ranging from 6.75 to 54 mg/kg. The data presented in FIGS. 9A and 9B support the conclusion that oral administration of ARE112 also decreases food intake in both food-deprived and non-food deprived rats. […] In FIG. 9A, rats were deprived 24 hours prior to oral administration of the compound. In this assay, the vehicle-treated rats at 2.5 hours consumed […] of food while injected rats; particularly rats administered with 27 and 54 mg/kg of ARE 112, ate about 6 and 4 grams, respectively. […] (See, FIG. 9A).
Several other GPR6 inverse agonists were also assessed under 24-hour food deprived conditions, with PO administration. The analogs listed below were tested at 200 μmol/kg, which is equivalent to 54 mg/kg. In addition, ARE114 was also assessed at […]. Data are summarized below in Table C:
In a second assay, tested under the same conditions, several other analogs were assessed at 100 μmol/kg.
In FIG. 10, rats were deprived 24 hours prior to oral administration of the compound. In this assay, analogs ARE130, ARE135, ARE136, and ARE140, were administered at a dose of 100 μmol/kg. Three analogs, particularly, ARE130, ARE136 and ARE140 evidenced a slow intake of food (e.g., about 1 to 1.5 grams every two hours) over an eight hour period post-administration; while the vehicle rat consumed about 2 to 2.5 grams food every two hours. Similar to the vehicle rat, analog ARE135, an opened ring structure, evidenced that over an eight hour period post-administration the rats increasingly consumed about 2.5 grams every two hours. (See, FIG. 10A). Furthermore, the body weight of the vehicle rat and administered rats with analog ARE135 gained about 19.5 grams. On the other hand, the closed ring structures evidenced a decrease in body weight gain as follows: ARE112-6 grams, ARE130-9 grams, ARE136-11 grams and ARE140-14 grams. See, FIG. 10C.

GPR6:Gsα-Fusion Protein = target: T2, GPR6:Gsα-Fusion Protein (Homo sapiens, UniProt P46095); assay: [35S]GTPγS membrane binding assay (Example 4A); assay type: biochemical
T2 construct: expressed in transfected cells
Description: The assay plates were then centrifuged at 400 rpm for 15 minutes at room temperature and then subsequently aspirated and counted in a scintillation counter.
Membranes expressing the GPCR6:Gsα-Fusion Protein (see Example 2) and for use in the direct identification of candidate compounds as inverse agonists, agonists or partial agonists were prepared as follows:
All materials were kept on ice throughout the procedure. Firstly, the media was aspirated from a confluent monolayer of cells, followed by rinse with 10 ml cold PBS, followed by aspiration. Thereafter, 5 ml of membrane Scrape Buffer was added to scrape cells; this was followed by transfer of cellular extract into 50 ml centrifuge tubes (centrifuged at 20,000 rpm for 17 minutes at 4° C.). Thereafter, the supernatant was aspirated and the pellet was resuspended in 30 ml Membrane Wash Buffer followed by centrifuge at 20,000 rpm for 17 minutes at 4° C. The supernatant was then aspirated and the pellet resuspended in Binding Buffer. This was then homogenized using a Brinkman polytron™ homogenizer (15-20 second bursts until the all material was in suspension). This is referred to herein as “Membrane Protein”.
Candidate compounds (Tripos, Inc., St. Louis, Mo.) were received in 96-well plates (these can be frozen at −80° C.). Membrane Protein (or membranes with expression vector excluding the GPR6:Gsα-Fusion Protein, as control), were homogenized briefly until in suspension. Protein concentration was then determined using the Bradford Protein Assay set forth above. […] Thereafter, 100 ul GDP Buffer was added to each well of a Wallac Scintistrip™ (Wallac). A 5 ul pin-tool was then used to transfer 5 ul of a candidate compound into such well (i.e., 5 ul in total assay volume of 200 ul is a 1:40 ratio such that the final screening concentration of the candidate compound is 10 uM). Again, to avoid contamination, after each transfer step the pin tool was rinsed in three reservoirs comprising water (1×), ethanol (1×) and water (2×)—excess liquid should be shaken from the tool after each rinse and dried with paper towels and kimwipes™. Thereafter, 50 ul of Membrane Protein was added to each well (a control well comprising membranes without the GPCR Fusion Protein is also utilized), and pre-incubated for 5-10 minutes at room temperature (the plates were covered with foil in that the candidate compounds obtained from Tripos are light sensitive). Thereafter, 50 ul of [^35S]GTPγS (0.6 nM) in Binding Buffer was added to each well, followed by incubation on a shaker for 60 minutes at room temperature (again, in this example, plates were covered with foil). The assay was then stopped by spinning of the plates at 4000 RPM for 15 minutes at 22° C. The plates were then aspirated with an 8 channel manifold and sealed with plastic plate covers. The plates were then read on a Wallac 1450 using setting “Prot. #37” (as per manufacturer instructions).
The initial or “primary” screen designed to directly identify, e.g., human GPR6 receptor inverse agonists, consisted of the membrane-based GTPγS binding assay of Example 4A utilizing membranes prepared from 293 stable cells. Candidate compounds directly identified as inhibiting receptor-mediated increases in GTPγS as set forth below were considered active “leads”.
It is preferred that following such direct identification, IC50 (inverse agonist) or EC50 (agonist) values be determined; those having ordinary skill in the art are credited with utilizing IC50 and EC50 assay protocols of choice. FIG. 4 provides a representative IC50 curve for compound ARE112 using the assay protocol of Example 4A.

[2] = 100 μmol/kg PO, second assay, Table D, vehicle 19.25

T2 sequence (P46095 with tags, fused parts or gaps): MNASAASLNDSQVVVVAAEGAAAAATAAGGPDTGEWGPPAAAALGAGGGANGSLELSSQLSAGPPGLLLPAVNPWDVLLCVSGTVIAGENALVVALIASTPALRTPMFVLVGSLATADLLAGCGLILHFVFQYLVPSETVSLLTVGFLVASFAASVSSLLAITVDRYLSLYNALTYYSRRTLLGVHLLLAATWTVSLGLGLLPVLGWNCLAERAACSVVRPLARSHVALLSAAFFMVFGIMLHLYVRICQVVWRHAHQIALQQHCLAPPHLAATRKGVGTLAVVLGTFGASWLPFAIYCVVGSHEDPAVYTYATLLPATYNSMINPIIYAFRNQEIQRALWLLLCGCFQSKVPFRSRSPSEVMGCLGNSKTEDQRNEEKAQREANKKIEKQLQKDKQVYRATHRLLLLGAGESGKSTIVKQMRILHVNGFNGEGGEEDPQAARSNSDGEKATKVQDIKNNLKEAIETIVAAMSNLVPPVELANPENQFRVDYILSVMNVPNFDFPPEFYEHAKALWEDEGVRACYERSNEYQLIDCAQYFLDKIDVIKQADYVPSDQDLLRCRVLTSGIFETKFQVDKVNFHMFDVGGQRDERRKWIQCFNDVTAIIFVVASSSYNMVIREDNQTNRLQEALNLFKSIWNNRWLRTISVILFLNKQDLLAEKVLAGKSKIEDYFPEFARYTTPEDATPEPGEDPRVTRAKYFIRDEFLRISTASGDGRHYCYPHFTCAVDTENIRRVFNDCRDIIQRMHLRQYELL
T1 sequence (P46095 whole entry): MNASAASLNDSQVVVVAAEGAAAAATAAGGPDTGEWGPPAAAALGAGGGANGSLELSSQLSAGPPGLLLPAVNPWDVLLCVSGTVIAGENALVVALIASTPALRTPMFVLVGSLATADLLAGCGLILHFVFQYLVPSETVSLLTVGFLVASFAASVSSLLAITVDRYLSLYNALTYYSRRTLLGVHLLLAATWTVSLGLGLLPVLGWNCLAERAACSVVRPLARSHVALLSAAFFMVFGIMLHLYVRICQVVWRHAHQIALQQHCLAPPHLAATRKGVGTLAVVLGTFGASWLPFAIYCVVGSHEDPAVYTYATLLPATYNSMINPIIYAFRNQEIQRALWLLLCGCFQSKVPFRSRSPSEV

Structure (SMILES): O=C(N=C1SSC2=NCCN21)c1cc2ccccc2s1 [ARE140, N-(5,6-dihydro-3H-imidazo[2,1-c]-1,2,4-dithiazol-3-ylidene)-benzothiophen-2-carboxamide]
- pIC50 (GPR6): 6.72
- Cumulative Food Intake (g) (8 hr post administration) ([1]; 100 μmol/kg PO, second assay, Table D, vehicle 14.0): 9.6 g
- Body Weight Gain (g) (6 hr post administration) [1, 2]: 14.6 g
- Cumulative Water Intake (g) (6 hr post administration) [1, 2]: 20.0 g
- water drunk (FIG. 10B) ([1]; 100 μmol/kg oral, comparable to vehicle): about 19 grams
- body weight gain (FIG. 10C) ([1]; 100 μmol/kg oral, vehicle about 19.5 grams): 14 grams
- pIC50 (GPR6:Gsα-Fusion Protein; mean +/- SD (number of assays), read-out: IC50 Values (Table E, GTP Assay of Example 4A)): 6.77
- pIC50 (GPR6:Gsα-Fusion Protein; mean +/- standard deviation (number of assays in brackets), read-out: IC50 Values GTP Assay Example 4A): 6.89
